The SangsterLogP compilation

logP	Structure (SMILES)
2.29	Cc1cc2nccnc2cc1C
0.9	Nc1ccc2nccnc2c1
1.61	Cc1cnc2ccccc2n1
2.04	Cc1cccc2nccnc12
1.75	Clc1cccc2nccnc12
2.79	CSc1cnc2ccccc2n1
2.73	CCC(=O)Nc1ccnc2cc(Cl)ccc12
2.92	Brc1ccc2cccnc2c1
2.37	COc1ccc2cccnc2c1
2.31	COc1cnc2ccccc2n1
0.79	CS(=O)(=O)c1cnc2ccccc2n1
2.23	Clc1cnc2ccccc2n1
1.5	Nc1cnc2ccccc2n1
1.98	N#Cc1ccnc2ccccc12
2.22	CCOc1ccc2nccnc2c1
1.55	CC(=O)Nc1ccc2ncccc2c1
2.62	CC(=O)c1ccnc2cc(Cl)ccc12
2.1	Clc1ccc2nccnc2c1
1.83	CCOC(=O)c1cccc2cccnc12
1.73	CCOC(=O)Oc1cccc2cccnc12
1.29	Nc1cccc2nccnc12
1.63	Nc1ccnc2ccccc12
1	COc1ccncc1
2.71	CN(C)c1ccc2cccnc2c1
1.01	N#Cc1ccc2nccnc2c1
0.71	CC(=O)Nc1cccc2ncccc12

More lines, now with the values behind:

Structure (SMILES)	logP
Cc1cc(C#N)ccn1	0.81
Clc1cccnc1	1.33
CC(=O)c1ccc2ccccc2n1	2.54
Cc1ccc([N+](=O)[O-])cn1	0.99
Nc1cnc2ccccc2c1	1.63
CC(=O)Nc1cnc2ccccc2c1	1.92
O=[N+]([O-])c1ccnc2ccccc12	2.06
N#Cc1ccccn1	0.5
CC(=O)c1ccccn1	0.83
Cc1cnccn1	0.23
Cc1ccc2c(c1)N(O)C=CN2O	-0.35
CC(=O)Nc1cccnc1	0.41
Cc1cnc(C)cn1	0.63
CN(C)c1cccc2cccnc12	2.73
O=S(=O)(c1ccccc1)c1ccc2ncccc2c1	2.57
Clc1ccc2ccccc2n1	2.71
N#Cc1cccnc1	0.36
O=COc1ccccc1	1.26
N#Cc1ccncc1	0.46
O=[N+]([O-])c1cnc2ccccc2c1	1.97
Cc1cccc(C#N)n1	0.84
O=[N+]([O-])c1cccnc1	0.6
COC(=O)c1ccncc1	0.87
O=[N+]([O-])c1ccccn1	0.48
Cc1cccc2c1ncc[n+]2[O-]	1.2
CN(C)c1ccncc1	1.34
CC(=O)c1cccnc1	0.43
Nc1cnccn1	-0.07
